Consider eight compounds from ChEMBL document CHEMBL3112402, “Chemical constituents of Plectranthus amboinicus and the synthetic analogs possessing anti-inflammatory activity” (Bioorg Med Chem, 2014).

A word on the IC50: it is the point on the concentration scale where inhibition reaches its midpoint.

System in one assay: not listed separately
The assay can be described thus: Antiinflammatory activity in PMA-activated human U937 cells assessed as inhibition of LPS-induced TNF-alpha expression preincubated for 2 hrs followed by LPS challenge measured after 6 hrs by ELISA. It is filed as functional, cell-based. As to conditions: U-937. For orientation: An ELISA detects its analyte on a solid surface through an enzyme-linked reagent.
Turning to `C/C=C1\C(=O)C=C(C(C)C)C1=O`, the IC50 was 23.7 µM.

`CC1=CC(=O)/C(=C\C(C)C)C1=O`: the IC50 turned out to be 10.1 µM. As for `CC(C)C=C1C(=O)C=CC1=O`, the IC50 turned out to be 5.1 µM. On the same count and under the same terms, to `CC1=CC(=O)C(C(C)C)=CC1=O` [THYMOQUINONE] belongs 102 µM.

The target of the next assay is Transcription factor Jun (Homo sapiens, UniProt P05412). The assay can be described thus: Inhibition of transcription factor AP-1 binding to oligonucleotide containing TPA-responsive element in TPA-activated human HeLa cells after 1 hr by ELISA.
Chain of Transcription factor Jun (P05412 whole entry): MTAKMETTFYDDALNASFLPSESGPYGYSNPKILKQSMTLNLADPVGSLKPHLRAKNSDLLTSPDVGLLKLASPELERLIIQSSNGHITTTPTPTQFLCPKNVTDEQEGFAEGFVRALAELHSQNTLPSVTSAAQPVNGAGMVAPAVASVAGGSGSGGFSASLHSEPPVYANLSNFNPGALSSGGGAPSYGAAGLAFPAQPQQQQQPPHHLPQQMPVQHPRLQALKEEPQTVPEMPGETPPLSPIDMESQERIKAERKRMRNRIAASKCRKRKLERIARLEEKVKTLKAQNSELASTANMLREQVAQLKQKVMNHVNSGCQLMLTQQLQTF
Details: not given
It counts as cell-based.
As to `O=C(O)/C(=C\c1ccc(O)c(O)c1)C(c1ccc(O)c(O)c1)C(O)C(=O)O` (stereo not drawn), the IC50 worked out at 11.9 µM.

`O=C(O[C@H](Cc1ccc(O)c(O)c1)C(=O)O)[C@H]1[C@H](C(=O)O[C@H](Cc2ccc(O)c(O)c2)C(=O)O)[C@H](c2ccc(O)c(O)c2)[C@H]1c1ccc(O)c(O)c1` had an IC50 of 1.3 µM.

For `O=C(O[C@H](Cc1ccc(O)c(O)c1)C(=O)O)C1=Cc2ccc(O)c(O)c2C(C(=O)O[C@H](Cc2ccc(O)c(O)c2)C(=O)O)C1c1ccc(O)c(O)c1` (stereo partly drawn), the half-maximal inhibitory concentration (IC50) turned out to be 1.6 µM.

Regarding `O=C(/C=C/c1ccc(O)c(O)c1)O[C@H](Cc1ccc(O)c(O)c1)C(=O)O` [ROSMARINIC ACID], the IC50 amounted to 16.2 µM.
